Laboratory results taken from article PMC10846865, “The Blood-Brain Barrier: Implications for Experimental Cancer Therapeutics” (Annual review of cancer biology, 2023).

What was measured:
[1] = cited from earlier work
glioblastoma = system: glioblastoma; parameters: method as in Iorgulescu et al. 2021; details: preclinical studies, ref Iorgulescu et al. 2021; cited from earlier work
CNS metastases = system: CNS metastases; parameters: method as in Long et al. 2012, Ng et al. 2022; details: ref Long et al. 2012, Ng et al. 2022; cited from earlier work
[2] = parameters: method as in Mittapalli et al. 2013; details: ref Mittapalli et al. 2013; cited from earlier work
PI3K pathway = system: PI3K pathway; parameters: method as in Wen et al. 2019b; details: ref Wen et al. 2019b, cited from earlier work
[3] = cited from earlier work; remark: listed apart in the source
[4] = Spatial drug imaging by MALDI-MSI (drug distribution in tissues); details: 10 mg/kg, 30'; DHB matrix; 12 µm-thick sections, MALDI MSI 12 Tesla FT-ICR, 100 µm spatial resolution; Agar Lab
[5] = system: newly diagnosed glioblastoma; parameters: method as in Gilbert et al. 2014; details: patients with newly diagnosed glioblastoma; ref Gilbert et al. 2014; cited from earlier work
recurrent glioblastoma = details: cited from earlier work

Compound: CN(Cc1cnc2nc(N)nc(N)c2n1)c1ccc(C(=O)N[C@@H](CCC(=O)O)C(=O)O)cc1 [methotrexate]
- therapeutic window, intrathecal treatment ([1]; intrathecal treatment of hematological malignancies, ref Kwong et al. 2009, Clement & Holle 2017): narrow therapeutic window

Compound: C[C@@H]1C[C@H]2[C@@H]3CCC4=CC(=O)C=C[C@]4(C)[C@@]3(F)[C@@H](O)C[C@]2(C)[C@@]1(O)C(=O)CO [dexamethasone]
- effect on clinical benefit of immune checkpoint blockade (glioblastoma): limit the clinical benefit of immune checkpoint blockade in glioblastoma in a dose-dependent manner

Compound: CC(C)(C)c1nc(-c2cccc(NS(=O)(=O)c3c(F)cccc3F)c2F)c(-c2ccnc(N)n2)s1 [dabrafenib]
- response in patients with CNS metastases (CNS metastases): clinically significant response rates
- distribution across an intact BBB [2]: limited distribution across an intact BBB

Compound: Nc1cc(C(F)(F)F)c(-c2cc(N3CCOCC3)nc(N3CCOCC3)n2)cn1 [buparlisib]
- inhibition of the PI3K pathway (molecular response) (PI3K pathway; pharmacokinetic measures paired with molecular response): not potent enough to effectively inhibit the PI3K pathway
- unbound tumor-to-plasma ratio (PI3K pathway): high

Compound: S=P(N1CC1)(N1CC1)N1CC1 [thiotepa]
- Kp,uu (unbound drug levels in blood and cerebrospinal fluid) ([3]; blood vs cerebrospinal fluid, ref Heideman et al. 1989, 1993): ~ 1
- half-life ([3]; rapidly metabolized, ref Heideman et al. 1989, 1993): less than 2 hours
- dose-limiting toxicity ([3]; ref Dunkel et al. 1998): myelosuppression
- apparent brain permeability (Papp) ([3]; ref Heideman et al. 1989, 1993): high

Compound: CNCc1ccc(-c2[nH]c3cc(F)cc4c3c2CCNC4=O)cc1 [Rucaparib]
- Drug detection on brain by MALDI or LESA [4]: Drug not detected on brain by MALDI or LESA

Compound: CC[C@]1(O)C[C@H]2CN(CCc3c([nH]c4ccccc34)[C@@](C(=O)OC)(c3cc4c(cc3OC)N(C=O)[C@H]3[C@@](O)(C(=O)OC)[C@H](OC(C)=O)[C@]5(CC)C=CCN6CC[C@]43[C@@H]65)C2)C1 [vincristine]
- toxicity of inadvertent administration into the CSF ([1]; ref Dyer 2001, Chotsampancharoen et al. 2016): fatalities due to severe neurotoxicity

Compound: bevacizumab
- overall survival [5]: no difference
- delivery of radiolabeled temozolomide as measured by PET imaging (recurrent glioblastoma; in vivo): decreased delivery of radiolabeled temozolomide
- vascular permeability (recurrent glioblastoma; not told): decrease vascular permeability
